# According to patent US9365551B2, “2-(benzyloxy) benzamides as LRRK2 kinase inhibitors” (Glaxo Group Limited, priority 2010, dated 2016):
# Structures can show the parent of a compound that is named as a salt.
# Tests used:
# [1] = target: T1, 6His-Tev-LRRK2 (1326-2527) (Homo sapiens, UniProt Q5S007); experiment: LRRK2 peptide substrate assay; format: biochemical; settings: mean pIC50 of multiple test results
# T1 construct: A LRRK2 cDNA encoding residues 1326-2527 was received from Dundee University; made in house; host or cells: Spodoptera frugiperda (Sf9) insect cells, baculovirus (pFB-HTb)
# T1 sequence (Q5S007 1326-2527): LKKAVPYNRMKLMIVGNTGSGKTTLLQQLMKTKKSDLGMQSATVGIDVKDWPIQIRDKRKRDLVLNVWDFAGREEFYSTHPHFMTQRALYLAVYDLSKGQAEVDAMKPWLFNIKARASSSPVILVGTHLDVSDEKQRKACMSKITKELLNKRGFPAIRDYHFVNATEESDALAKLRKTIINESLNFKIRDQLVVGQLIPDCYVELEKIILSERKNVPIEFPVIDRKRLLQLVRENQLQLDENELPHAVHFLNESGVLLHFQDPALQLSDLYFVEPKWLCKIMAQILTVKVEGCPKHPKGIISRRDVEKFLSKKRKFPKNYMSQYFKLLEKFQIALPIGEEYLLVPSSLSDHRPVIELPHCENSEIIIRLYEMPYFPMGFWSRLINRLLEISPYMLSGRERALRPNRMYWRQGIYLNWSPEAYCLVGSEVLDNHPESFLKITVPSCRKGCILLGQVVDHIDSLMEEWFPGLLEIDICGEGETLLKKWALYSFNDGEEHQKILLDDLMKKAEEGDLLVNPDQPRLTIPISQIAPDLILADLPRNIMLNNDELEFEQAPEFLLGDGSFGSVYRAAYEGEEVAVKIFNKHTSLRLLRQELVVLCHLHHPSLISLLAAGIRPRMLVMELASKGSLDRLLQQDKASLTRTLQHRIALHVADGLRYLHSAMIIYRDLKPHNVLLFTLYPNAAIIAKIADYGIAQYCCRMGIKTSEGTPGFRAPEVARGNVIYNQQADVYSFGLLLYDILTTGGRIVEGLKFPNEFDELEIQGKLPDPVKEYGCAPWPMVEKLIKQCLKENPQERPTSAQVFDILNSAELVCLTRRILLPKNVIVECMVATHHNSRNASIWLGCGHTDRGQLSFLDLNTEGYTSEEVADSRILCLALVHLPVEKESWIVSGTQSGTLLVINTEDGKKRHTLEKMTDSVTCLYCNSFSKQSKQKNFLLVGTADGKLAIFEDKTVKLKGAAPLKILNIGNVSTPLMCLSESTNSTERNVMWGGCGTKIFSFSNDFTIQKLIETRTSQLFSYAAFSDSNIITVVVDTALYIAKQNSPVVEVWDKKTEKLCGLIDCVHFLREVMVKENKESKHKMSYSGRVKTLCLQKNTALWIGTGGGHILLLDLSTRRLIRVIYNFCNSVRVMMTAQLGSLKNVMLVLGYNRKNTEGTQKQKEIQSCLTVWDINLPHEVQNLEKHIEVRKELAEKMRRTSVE
# Method: (§1) Compounds of formula (I) may be tested for in vitro kinase activity in accordance with the following assays, using the non natural, in vitro, substrates moesin and the Longer Biotin-LRRKtide. Moesin and a shorter version of the peptide were identified as substrates in Jaleel et al. (2007, Biochem J, 405: 307-317).
# LRRK2 Peptide Substrate Assay
# a) 100 nl of a 1:4 serial dilution of test compound with a top final assay concentration of 30 μM is added to certain wells in a low volume 384 well black plate. 100 nl of DMSO is used in certain wells as controls.
# (§2) b) 3 μl enzyme solution (80 nM purified recombinant 6His-Tev-LRRK2 (1326-2527) in assay buffer: 50 mM Hepes (pH 7.2), 10 mM MgCl2, 150 mM NaCl, 5% glycerol, 0.0025% triton X-100 and 1 mM DTT) is added to certain wells. 3 μl assay buffer is added to certain wells as a 100% inhibition (no enzyme) control. c) After incubation at room temperature for 30 minutes, 3 μl substrate solution (2 μM Biotin-LRRKtide peptide substrate and ATP at Km in assay buffer) is added to each well. Plates are then incubated for a further 1-2 hours at room temperature (incubation time varies depending upon rate and linearity of reaction with differing enzyme batches). d) 6 μl detection solution (50 nM Streptavidin SureLight® APC (PerkinElmer), 4 nM Eu-W1024 labelled anti-rabbit IgG antibody (PerkinElmer), 1:500 dilution (dilution determined on a batch to batch basis) of Phospho-Ezrin (Thr567)/Radixin (Thr564)/Moesin (Thr558) Polyclonal Antibody (New England Biolabs) and 60 mM EDTA in buffer: 40 mM Hepes (pH 7.2), 150 mM NaCl, 0.03% BSA) is added to each well. Plates are then incubated for a further 2 hours at room temperature before reading on a suitable plate reader (Excitation 330 nm, emission 620 nm (Eu) and 665 nm (APC)). Data is analysed using ActivityBase software (IDBS). LRRK2 AlphaScreen Desensitised Protein Substrate Assay a) 100 nl of a 1:4 serial dilution of test compound with a top final assay concentration of 30 μM is added to certain wells in a low volume 384 well black plate. 100 nl of DMSO is used in certain wells as controls. b) 3 μl enzyme solution (80 nM purified recombinant 6His-Tev-LRRK2 (1326-2527) in assay buffer: 50 mM Hepes (pH 7.2), 10 mM MgCl2, 150 mM NaCl, 5% glycerol, 0.0025% triton X-100 and 1 mM DTT) is added to certain wells. 3 μl assay buffer is added to certain wells as a 100% inhibition (no enzyme) control. c) After incubation at room temperature for 30 minutes, 3 μl substrate solution (200 nM GST-PS-Moesin (400-577) and 2 mM ATP in assay buffer) is added to each well. Plates are then incubated for 20 minutes at room temperature. d) 6 μl detection solution (1:250 dilution of AlphaLisa Protein A Acceptor beads (PerkinElmer), 1:64 dilution of AlphaLisa Gluthathione Donor beads (PerkinElmer) and 1:600 dilution (dilution determined on a batch to batch basis) of Phospho-Ezrin (Thr567)/Radixin (Thr564)/Moesin (Thr558) Polyclonal Antibody (New England Biolabs) in a buffer: 50 mM Hepes (pH 7.5), 250 mM NaCl, 60 mM EDTA, 1% PEG and 0.01% Brij 35) is added to each well. Plates are then incubated for a further 2 hours at room temperature in the dark before reading on an EnVision™ plate reader with AlphaScreen HTS turbo option module and AlphaScreen settings. Data is analysed using ActivityBase software (IDBS). Pharmacological Data
# [2] = target: T1, 6His-Tev-LRRK2 (1326-2527); experiment: LRRK2 AlphaScreen desensitised protein substrate assay; format: biochemical; settings: mean pIC50 of multiple test results
# Method: as §1, §2
# [3] = stated as threshold, read-out: pIC50 in the LRRK2 peptide substrate assay (bounds) (converted)
# [4] = stated as threshold, read-out: pIC50 in the LRRK2 alphascreen desensitised protein substrate assay (bounds) (converted)
# [5] = Biotin-LRRKtide peptide substrate, ATP at Km, read-out: LRRK2 peptide substrate assay (pIC50) (converted)
# [6] = GST-PS-Moesin (400-577) substrate, 2 mM ATP, read-out: LRRK2 alphascreen desensitized protein substrate assay (pIC50) (converted)
"IC50 [1, 3]","IC50 [1, 5]",Compound,"IC50 [2, 4]","IC50 [2, 6]"
≤ 0.01 µM,,"Cc1cc(OCc2ccccc2)c(C(=O)Nc2ccnnc2)cc1Br [Example 5, 5-Bromo-4-methyl-2-[(phenylmethyl)oxy]-N-4-pyridazinyl benzamide]",≤ 0.316 µM,
≤ 0.1 µM,,"Cn1cc(-c2cc(C(=O)Nc3cccc(Cl)c3)c(OCc3ccccc3)cc2CN2CCOCC2)cn1 [Example 51, 2-(benzyloxy)-N-(3-chlorophenyl)-5-(1-methyl-1H-pyrazol-4-yl)-4-(morpholinomethyl)benzamide, Maleic acid salt]",,
≤ 0.1 µM,,"Cc1nocc1NC(=O)c1cc(Cl)c(C(=O)N2CCC(F)(F)C2)cc1OCc1ccccc1 [Example 43, 5-Chloro-4-[(3,3-difluoro-1-pyrrolidinyl)carbonyl]-N-(3-methyl-4-isoxazolyl)-2-[(phenylmethyl)oxy]benzamide]",≤ 25.1 µM,
≤ 0.01 µM,0.01 µM,"Cc1cc(C(=O)Nc2cccnc2)c(OCc2ccccc2)cc1Br [Example 9, 4-Bromo-5-methyl-2-[(phenylmethyl)oxy]-N-3-pyridinylbenzamide]",≤ 0.316 µM,0.126 µM
≤ 0.1 µM,0.0501 µM,CN(C)C(=O)c1cc(OCc2ccccc2)c(C(=O)Nc2cccnc2)cc1-c1cnn(C)c1 [Example 32],≤ 0.316 µM,0.2 µM
≤ 0.01 µM,,"O=C(Nc1cccc(Cl)c1)c1cc(Cl)c(C(=O)N2CCOCC2)cc1OCc1ccccc1 [Example 45, 5-Chloro-N-(3-chlorophenyl)-4-(4-morpholinylcarbonyl)-2-[(phenylmethyl)oxy]benzamide]",≤ 0.316 µM,
≤ 0.1 µM,,"CN1CCN(C(=O)c2cc(OCc3ccccc3)c(C(=O)Nc3cccnc3)cc2Cl)CC1 [Example 54, 2-(benzyloxy)-5-chloro-4-(4-methylpiperazine-1-carbonyl)-N-(pyridin-3-yl)benzamide]",,
≤ 0.1 µM,0.0158 µM,"Cn1cc(-c2cc(C(=O)Nc3cccnc3)c(OCc3ccccc3)cc2CN2CCOCC2)cn1 [Example 4, 5-(1-Methyl-1H-pyrazol-4-yl)-4-(4-morpholinylmethyl)-2-[(phenylmethyl)oxy]-N-3-pyridinylbenzamide]",≤ 0.316 µM,0.126 µM
≤ 0.1 µM,,"CN1CCN(C(=O)c2cc(OCc3ccccc3)c(C(=O)Nc3ccnnc3)cc2Cl)CC1 [Example 55, 2-(benzyloxy)-5-chloro-4-(4-methylpiperazine-1-carbonyl)-N-(pyridazin-4-yl)benzamide]",≤ 0.316 µM,
≤ 1.26 µM,,"O=C(Nc1ccnnc1)c1cc(C(F)(F)F)c(C(=O)N2CCCCC2)cc1OCc1ccccc1 [Example 40, 2-[(Phenylmethyl)oxy]-4-(1-piperidinylcarbonyl)-N-4-pyridazinyl-5-(trifluoromethyl)benzamide]",≤ 25.1 µM,
≤ 0.01 µM,0.00794 µM,"Cc1cc(C(=O)Nc2cccnc2)c(OCc2ccccc2)cc1-c1cnn(C)c1 [Example 11, 5-Methyl-4-(1-methyl-1H-pyrazol-4-yl)-2-[(phenylmethyl)oxy]-N-3-pyridinylbenzamide]",≤ 0.316 µM,0.0501 µM
≤ 0.1 µM,0.0501 µM,"O=C(Nc1ccnnc1)c1cc(Cl)c(C(=O)N2CCC(F)(F)C2)cc1OCc1ccccc1 [Example 42, 5-Chloro-4-[(3,3-difluoro-1-pyrrolidinyl)carbonyl]-2-[(phenylmethyl)oxy]-N-4-pyridazinylbenzamide]",≤ 25.1 µM,0.501 µM
≤ 0.1 µM,,"Cn1cc(-c2cc(C(=O)Nc3ccnnc3)c(OCc3ccccc3)cc2CN2CCOCC2)cn1 [Example 3, 5-(1-Methyl-1H-pyrazol-4-yl)-4-(4-morpholinylmethyl)-2-[(phenylmethyl)oxy]-N-4-pyridazinylbenzamide]",≤ 25.1 µM,
≤ 0.1 µM,0.0316 µM,"O=C(Nc1cccnc1)c1cc(Cl)c(C(=O)N2CCOCC2)cc1OCc1ccccc1 [Example 44, 5-Chloro-4-(4-morpholinylcarbonyl)-2-[(phenylmethyl)oxy]-N-3-pyridinylbenzamide]",≤ 0.316 µM,0.158 µM
≤ 0.01 µM,0.01 µM,"Cn1cc(-c2cc(C(=O)Nc3cccc(F)c3)c(OCc3ccc(F)cc3)cc2C(=O)N2CCOCC2)cn1 [Example 47, 2-((4-fluorobenzyl)oxy)-N-(3-fluorophenyl)-5-(1-methyl-1H-pyrazol-4-yl)-4-(morpholine-4-carbonyl)benzamide]",≤ 0.316 µM,0.126 µM
≤ 1.26 µM,,"Cn1cc(-c2cc(C(=O)Nc3ccnnc3)c(OCc3ccccc3)cc2C(=O)N2CCOCC2)cn1 [Example 24, 5-(1-Methyl-1H-pyrazol-4-yl)-4-(4-morpholinylcarbonyl)-2-[(phenylmethyl)oxy]-N-4-pyridazinylbenzamide]",≤ 25.1 µM,
≤ 0.1 µM,,"Cn1cc(-c2cc(C(=O)Nc3cccc(Cl)c3)c(OCc3ccccc3)cc2CN2CCOCC2)cn1 [Example 50, 2-(benzyloxy)-N-(3-chlorophenyl)-5-(1-methyl-1H-pyrazol-4-yl)-4-(morpholinomethyl)benzamide, Hydrochloride]",,
